Columns and labels:
P2Y6 receptor = target: T1, P2Y6 receptor (Homo sapiens, UniProt Q15077); test: Activation of P2Y6 receptor: receptor induced Ca2+ changes with fluo-4 in 1321N1 astrocytoma cells; assay type: cell-based
T1 construct: expressed in transfected cells; host or cells: 1321N1 human astrocytoma cell line
Description: Synthetic ligands were tested for activation of P2Y6 receptor by measuring receptor induced Ca^2+ changes with the fluorescent Ca^2+ indicator fluo-4. 1321N1 human astrocytoma cell lines either expressing P2Y2, P2Y4 or P2Y6 receptors were plated into 24-well plates. Two days after plating, fluorometric measurements were made and responses of cells to a serial dilution of ligands were determined P2Y6 receptor-mediated Ca^2+ fluorescent change was determined by normalized accumulation of fluorescent change of 3 timepoints after ligand administration subtracted by value from ACSF control. Changes in fluorescent intensity were plotted corresponding to ligand concention in GraphPad. Dose-response curve and EC50 for each ligand was estimated using nonlinear curve fit and Sigmoidal dose-response analysis. […] The sodium salt of compound 5 was only effective at elevating Ca^2+ levels when applied to cells expressing P2Y6 receptors and not effective in P2Y2, or P2Y4 receptor expressing cells. The ability of the sodium salt of compound 5 to elevate Ca^2+ signals in P2Y6 expressing cells was attenuated by addition of the P2Y6 receptor antagonist MRS2578.
(§1) Synthetic ligands were tested for activation of P2Y6 receptor by measuring receptor induced Ca^2+ changes with the fluorescent Ca^2+ indicator fluo-4, and results are shown in FIG. 10(A)-(K). 1321N1 human astrocytoma cell lines either expressing P2Y2, P2Y4 or P2Y6 receptors were plated into 24-well plates. Two days after plating, fluorometric measurements were made and responses of cells to a serial dilution of ligands were determined P2Y6 receptor-mediated Ca^2+ fluorescent change was determined by normalized accumulation of fluorescent change of 3 timepoints after ligand administration subtracted by value from ACSF control. Changes in fluorescent intensity were plotted corresponding to ligand concentration in GraphPad. Dose-response curve and EC50 for each ligand was estimated using nonlinear curve fit and Sigmoidal dose-response analysis. […]

P2Y4 receptor = target: T2, P2Y4 receptor (Homo sapiens, UniProt P51582); test: Ca2+ mobilization (fluo-4) in 1321N1 astrocytoma cells expressing P2Y4 receptor; assay type: cell-based; conditions: sodium salt; 1321N1 cells expressing P2Y4
T2 construct: expressed in transfected cells; host or cells: 1321N1 human astrocytoma cell line
T2 sequence (P51582 whole entry): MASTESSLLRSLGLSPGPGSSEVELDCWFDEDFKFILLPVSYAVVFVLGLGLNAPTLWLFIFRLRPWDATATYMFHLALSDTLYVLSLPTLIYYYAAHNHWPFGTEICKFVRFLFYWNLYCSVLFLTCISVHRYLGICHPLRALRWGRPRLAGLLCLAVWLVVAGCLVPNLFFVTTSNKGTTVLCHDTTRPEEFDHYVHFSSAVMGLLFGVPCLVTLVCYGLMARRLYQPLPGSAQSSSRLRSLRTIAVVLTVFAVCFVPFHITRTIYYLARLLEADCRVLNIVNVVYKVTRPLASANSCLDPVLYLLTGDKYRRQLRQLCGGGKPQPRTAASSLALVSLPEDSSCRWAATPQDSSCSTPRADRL
Description: as §1, with “fluo-4.” for “fluo-4, and results are shown in FIG. 10(A)-(K).”, “concention” for “concentration”
(§2) Synthetic ligands were tested for activation of P2Y6 receptor by measuring receptor induced Ca^2+ changes with the fluorescent Ca^2+ indicator fluo-4, and results are shown in FIG. 10(A)-(K). […] Two days after plating, fluorometric measurements were made and responses of cells to a serial dilution of ligands were determined P2Y6 receptor-mediated Ca^2+ fluorescent change was determined by normalized accumulation of fluorescent change of 3 timepoints after ligand administration subtracted by value from ACSF control. […]

P2Y2 receptor = target: T3, P2Y2 receptor (Homo sapiens, UniProt P41231); test: Ca2+ mobilization (fluo-4) in 1321N1 astrocytoma cells expressing P2Y2 receptor; assay type: cell-based; conditions: sodium salt; 1321N1 cells expressing P2Y2
T3 construct: expressed in transfected cells; host or cells: 1321N1 human astrocytoma cell line
T3 sequence (P41231 whole entry): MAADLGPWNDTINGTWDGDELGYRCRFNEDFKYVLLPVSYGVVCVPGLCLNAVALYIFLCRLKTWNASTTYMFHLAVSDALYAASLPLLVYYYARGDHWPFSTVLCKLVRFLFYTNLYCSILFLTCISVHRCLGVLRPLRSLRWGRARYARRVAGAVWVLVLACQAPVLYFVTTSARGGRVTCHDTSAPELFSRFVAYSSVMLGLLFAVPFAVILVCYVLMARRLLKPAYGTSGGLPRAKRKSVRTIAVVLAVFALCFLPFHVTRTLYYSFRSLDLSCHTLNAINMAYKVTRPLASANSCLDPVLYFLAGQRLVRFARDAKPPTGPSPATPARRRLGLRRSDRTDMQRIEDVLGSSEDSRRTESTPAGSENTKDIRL
Description: as §1, with “fluo-4.” for “fluo-4, and results are shown in FIG. 10(A)-(K).”, “concention” for “concentration”
as §2

PSAPP mice [1] = test: Postmortem immunohistochemistry of plaque load in cortex and hippocampus; assay type: in vivo, mouse
Source text: (§3) Heterozygous mutant (K670N/M671L) APP (50% C57B6, 50% SJL) transgenic mice were crossed with heterozygous mutant (A246E) PS-1 (50% C57B6, 50% SJL) transgenic mice to generate heterozygous PSAPP transgenic mice (also referred to as PS-1/APP or PSAPP+/+ mice), which refers to animals heterozygous for the PS-1 A246E transgene and the APP K670N/M671L transgene. Non-transgenic control animals were littermates (also referred to as PSAPP_−/− mice) generated in the breeding for PSAPP transgenic animals. Mouse genotype was determined by Polymerase Chain Reaction (PCR). Both male and female mice of 6-7 months old were used for the experiments below. All animal experiments were performed in accordance with the Tufts Animal Care and Use Committee and with national regulations and policies.
Mice were perfused transcardially with 4% paraformaldehyde and 40 μm Coronal sections were collected. Sections were sequentially incubated in 0.3% H2O2 for 10 minutes, blocking solution for 2 hrs, blocking solution containing the primary antibody (rabbit anti-beta1-42; rabbit anti-beta1-40, from Chemicon International and rat anti-CD45) for 48 hours at 4° C., and blocking solution containing biotinylated antibody or fluorescently-labeled antibody for 2 hours at room temperature. Sections were visualized in a bright field microscope or a confocal microscope, and the optical density was obtained using MetaMorph software.
After repeated imaging, brains were fixed and subjected to postmortem immunohistochemistry with amyloid beta specific antibodies β1-40 and β1-42 to evaluate the plaque load (area occupied by immunostaining of plaque) in cortex and hippocampus.
PSB0474 was systemically administered to PSAPP mice via intraperitoneal injection for 2, 4 and 6 consecutive days. In one group, prior to evaluation and following to administration for 6 consecutive days, treatment was suspended for two weeks (6+2 weeks group). Brains were then fixed and plaque load was evaluated by immunostaining with the amyloid beta specific antibodies: β1-40 and β1-42. Representative images of plaque load in cortex and hippocampus from animals that received injections of PSB0474 according to the foregoing injection schedules are shown in FIG. 5(A)-(D). […] Whereas, when administration of PSB0474 was stopped for 2 weeks following six consecutive days of treatment (denoted as the 6+2 weeks group), β1-40 staining rebounded; although to a level lower than observed in mice treated with saline as a vehicle control. FIGS. 6A and 6B depict the reduction in plaque load (%) the cortex and hippocampus, respectively, in PSAPP mice after treatment with 3-phenacyl-UDP for 2, 4, or 6 consecutive days, as assayed by staining with the β1-40 antibody. FIGS. 6C-6F depict data obtained following administration of different dosages of PSB0474.
To generate these graphs showing plaque load, mice were euthanized, brain sections cut and antibodies directed against Aβ 42 were used to disclose Aβ plaques. Images were acquired digitally and an algorithm was applied to threshold the image so that plaques were isolated from the background. The algorithm then calculated the percent area of the field of view occupied by the plaques.

PSAPP mice [2] = test: Contextual fear conditioning test (freezing behavior); assay type: in vivo, mouse
Description: On day one, animals were trained in a fear conditioning apparatus for a total of 7 minutes with a two-pairing paradigm of cue and mild foot shock (a 30-s acoustic-conditioned stimulus, 80 dB; a 2-s shock stimulus, 0.5 mA). To evaluate contextual fear learning, the animals were returned to the training context 24 hours post-training, and freezing behavior was scored for 5 minutes. Freezing behavior was monitored by MotorMonitor (Hamilton Kinder) and scored every 5 seconds.
In this study, the fear conditioning associative learning paradigm was used as a rapid cognition assay for PSAPP mice. This study allowed us to probe cognitive function with a single training day followed in 24 hours by tests for contextual and cued fear learning. Contextual fear learning is dependent upon a brain area that has been implicated as a locus for cognitive decline in AD: the hippocampus. Two pairings of CS-US for fear conditioning were followed 24 hours later by testing for contextual and cued fear learning. Previous studies have reported that PSAPP animals appear to have a selective hippocampus-dependent impairment in associative learning following two pairings of conditioned stimuli for fear conditioning.
This represents a decrease in the cognitive impairment observed in the untreated mice.

wildtype mice = test: Plasma cytokine levels in wildtype mice; assay type: in vivo, mouse; conditions: wildtype animals, 1 ug/kg i.p. daily x7
Description: (§4) Inflammatory cytokines were assessed in mouse plasma of both wild type and PS1/APP mice (Alzheimer's mouse model) and the impact of intraperitoneal delivery of compound 5 on circulating cytokines was assessed. Seven daily intraperitoneal injections of 1 ug/kg of compound 5 were delivered to mice. 24 hours following the final injection, plasma was collected. Wildtype, age matched littermates and PSAPP mice (>6 months of age) were treated either with vehicle (phosphate buffered saline) or vehicle containing compound.

PSAPP mice [3] = test: Plasma cytokine levels in PSAPP mice; assay type: in vivo, mouse
Description: as §4

PSAPP mice [4] = test: Hippocampal long-term potentiation (LTP) recording, CA1, high-frequency stimulation; assay type: in vivo, mouse; conditions: acute treatment
Description: Hippocampal slices (350 μm thick) were prepared from 6-month-old PSAPP mice. Baseline responses were obtained every 10 seconds and Input-output (I/O) curves, paired-pulse modification and LTP were successively measured. The stimulation intensity was set to a level that gives a value of 30% of the maximum obtained. LTP were induced by high frequency stimulation (HFS, 100 pulses at 100 Hz, four times) or by theta-burst stimulation (TBS, 10 bursts at 5 Hz, repeated 10 times in 15 s intervals).
Accumulated evidence has shown that amyloid peptides naturally secreted or isolated from Alzheimer's brains impair synaptic plasticity, especially hippocampal long-term potentiation (Walsh et al., 2002). Therefore, we further performed LTP recordings in PASPP mice and investigated whether P2Y6 receptor-mediated plaque clearance affects synaptic plasticity. […] First, it was observed that LTP at the schaffer collateral synapse within the CA1 region was depressed in PSAPP mice, as compared with littermates (FIG. 8(A)).

PSAPP mice [5] = test: Two-photon in vivo imaging of methoxyX04-labeled amyloid plaques in barrel cortex; set-up: species or system mouse; conditions: vs ACSF
Source text: as §3
In this study, PSAPP mice were anesthetized using isoflurane and a thin-skull preparation was used to minimize the surface damage. Amyloid plaques were visualized with methoxyX04 labeling and blood plasma was labeled with Rhodamine dextran to facilitate re-localization of the same imaging area. Stack images were obtained using a two-photon system (Prairie Technologies) with excitation at 850 nm. The emission was detected by external photomultiplier tubes (525/70; DLCP 575; 607/45 nm).
Animals were anesthetized and immobilized in a stereotaxic frame. […]

[6] = β1-42 antibody, i.p. daily 7 days, vs vehicle

T1 sequence (Q15077 whole entry): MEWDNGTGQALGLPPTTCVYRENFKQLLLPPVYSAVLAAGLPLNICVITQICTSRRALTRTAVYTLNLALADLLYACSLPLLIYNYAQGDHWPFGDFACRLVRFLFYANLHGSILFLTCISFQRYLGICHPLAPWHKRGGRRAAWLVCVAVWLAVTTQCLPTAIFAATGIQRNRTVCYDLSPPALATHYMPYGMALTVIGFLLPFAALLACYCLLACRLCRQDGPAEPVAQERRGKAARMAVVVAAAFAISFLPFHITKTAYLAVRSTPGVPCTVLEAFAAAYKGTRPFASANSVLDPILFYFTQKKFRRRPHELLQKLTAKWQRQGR

S=C=Nc1cccc(NC(=S)NCCCCNC(=S)Nc2cccc(N=C=S)c2)c1 [MRS2578, reference compound]
effect of antagonist on Ca2+ signals elevated by sodium salt of compound 5 (P2Y6 receptor; P2Y6 expressing cells, antagonist added): attenuated

O=c1ccn([C@@H]2O[C@H](COP(=O)(O)OP(=O)(O)O)C(O)[C@@H]2O)c(=O)n1Cc1noc2ccccc12 (stereo partly drawn) [compound 5]
elevating Ca2+ levels in P2Y4 receptor expressing cells (P2Y4 receptor): not effective | elevating Ca2+ levels in P2Y2 receptor expressing cells (P2Y2 receptor): not effective | Aβ plaque load (%) in cortex (PSAPP mice [1]; [6]): substantial decrease | Aβ plaque load (%) in hippocampus (PSAPP mice [1]; [6]): substantial decrease | freezing behavior (freezing %), contextual fear conditioning (PSAPP mice [2]; i.p. daily for 7 consecutive days, vs vehicle control): significantly improved | plasma IL-2 level (wildtype mice): reduced | plasma IL-10 level (wildtype mice): reduced | plasma IL-2 level (PSAPP mice [3]; 1 ug/kg i.p. daily x7): reduced | plasma IL-7 level (PSAPP mice [3]; 1 ug/kg i.p. daily x7): reduced | plasma IL-9 level (PSAPP mice [3]; 1 ug/kg i.p. daily x7): reduced | plasma IL-10 level (PSAPP mice [3]; 1 ug/kg i.p. daily x7): reduced | plasma IL-15 level (PSAPP mice [3]; 1 ug/kg i.p. daily x7): reduced | plasma MIG level (PSAPP mice [3]; 1 ug/kg i.p. daily x7): reduced | plasma MIP1α level (PSAPP mice [3]; 1 ug/kg i.p. daily x7): reduced | plasma IL-1β level (PSAPP mice [3]; 1 ug/kg i.p. daily x7, 24 hours after final injection): reduced | elevating Ca2+ levels in cells expressing P2Y6 receptors (P2Y6 receptor; sodium salt, 1321N1 cells expressing P2Y6): effective | EC50 (P2Y6 receptor; sodium salt, Ca2+ fluorescent change, 1321N1 cells expressing P2Y6 receptor): 12 nM

O=c1ccn([C@@H]2O[C@H](COP(=O)(O)OP(=O)(O)O)[C@@H](O)[C@H]2O)c(=O)[nH]1 [UDP, uridine diphosphate]
LTP (fEPSP %) at schaffer collateral synapse, CA1 (PSAPP mice [4]; vs ACSF): significantly increased | last 15 min potentiation, field excitatory postsynaptic potential (fEPSP) (PSAPP mice [4]; comparable to littermates): significant increase | plaque load, day 4/day 1 ratio (PSAPP mice [5]; FIG. 2D): reduces | number of plaques, day 4/day 1 ratio (PSAPP mice [5]; FIG. 2E): reduces

O=C(Cn1c(=O)ccn(C2OC(COP(=O)(O)OP(=O)(O)O)C(O)C2O)c1=O)c1ccccc1 (stereo not drawn) [PSB0474, 3-phenacyl-UDP]
β1-40 staining (PSAPP mice [1]; 6 consecutive days then stopped for 2 weeks, level still lower than saline vehicle): rebounded | effects on the efficacy endpoint (plaque load) (PSAPP mice [1]; higher dose of 1 mg/kg, one week daily): smaller effects | immunoreactivity of β1-40 in cortex and hippocampus (PSAPP mice [1]; i.p. for 4 consecutive days): significantly decreased | immunoreactivity of β1-40 in cortex and hippocampus (PSAPP mice [1]; i.p. for 6 consecutive days): significantly decreased | memory deficit (freezing time), contextual fear conditioning (PSAPP mice [2]; one week treatment with 1 ug/kg, vs vehicle): rescued the memory deficit

Source: patent publication US9750760B2, “Uridine diphosphate derivatives, prodrugs, compositions and methods for treating neurodegenerative disorders” (Tufts University, priority 2012, dated 2017)
